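Five compound concentrations were applied to cells in 96-well plates for 48 hours; endpoints were derived by simple linear interpolation of the resulting dose-response curve. At the GI50, growth is halved.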 Calls of active or inactive are those of the source. No stated cut-off is given here; in the data, active = GI50 up to about 1.1 µM and inactive = higher.
Tests used:
Experiment in all cases: NCI tumour cell line growth inhibition, 48 h
BT-549 = system: BT-549
HCT-116 = system: HCT-116
MCF7 = system: MCF7
HCT-15 = system: HCT-15
CAKI-1 = system: CAKI-1
SNB-75 = system: SNB-75
HOP-62 = system: HOP-62
M14 = system: M14
MDA-MB-231 = system: MDA-MB-231
EKVX = system: EKVX
T47D = system: T47D
NCI-H460 = system: NCI-H460
MDA-N = system: MDA-N
U-251 = system: U-251
SK-MEL-5 = system: SK-MEL-5
SNB-19 = system: SNB-19
IGROV-1 = system: IGROV-1
RXF 393 = system: RXF 393
SK-MEL-28 = system: SK-MEL-28
HL-60 = system: HL-60

SMILES | GI50 (BT-549) | GI50 (HCT-116) | GI50 (MCF7) | GI50 (HCT-15) [µM] | GI50 (CAKI-1) | GI50 (SNB-75) | GI50 (HOP-62) | GI50 (M14) | GI50 (MDA-MB-231) | GI50 (EKVX) | GI50 (T47D) | GI50 (NCI-H460) | GI50 (MDA-N) | GI50 (U-251) | GI50 (SK-MEL-5) | GI50 (SNB-19) | GI50 (IGROV-1) | GI50 (RXF 393) | GI50 (SK-MEL-28) | GI50 (HL-60)
O=C1COC(c2ccccc2O)=NN1CCCN1CCCC1 | > 100 µM (inactive) | > 100 µM (inactive) | > 100 µM (inactive) | > 100 | > 100 µM (inactive) | > 100 µM (inactive) | > 100 µM (inactive) | > 100 µM (inactive) | > 100 µM (inactive) | > 100 µM (inactive) | > 100 µM (inactive) | > 100 µM (inactive) | > 100 µM (inactive) | > 100 µM (inactive) | > 100 µM (inactive) | > 100 µM (inactive) | > 100 µM (inactive) | > 100 µM (inactive) | > 100 µM (inactive) | –
CC(C)(C)OC(=O)N1CC(O)O[C@H](c2ccccc2)[C@@H]1c1ccccc1 (stereo partly drawn) | 17.8 µM (inactive) | 44.6 µM (inactive) | – | 18 | 44.9 µM (inactive) | 24.8 µM (inactive) | 16.3 µM (inactive) | 16.4 µM (inactive) | 28.2 µM (inactive) | 19.5 µM (inactive) | 31.1 µM (inactive) | – | 28.2 µM (inactive) | 14.4 µM (inactive) | 27.9 µM (inactive) | 15.7 µM (inactive) | 18.9 µM (inactive) | 15.1 µM (inactive) | 18.6 µM (inactive) | –
COc1cc(OC)c(-c2ccc(OCc3ccccc3)c3c(OC)cc(C)cc23)c2c1C(C)=N[C@H](C)C2 | 3.31 µM (inactive) | 2.23 µM (inactive) | – | 2.14 | > 12.5 µM (inactive) | 2.29 µM (inactive) | 2.26 µM (inactive) | 2.03 µM (inactive) | 2.33 µM (inactive) | 2.4 µM (inactive) | – | 2.1 µM (inactive) | 2.15 µM (inactive) | 2.08 µM (inactive) | 2.27 µM (inactive) | 2.68 µM (inactive) | 1.87 µM (inactive) | 2.77 µM (inactive) | 2.36 µM (inactive) | 2.2 µM (inactive)
O=C1Nc2ccccc2/C1=C1/Nc2ccccc2/C1=N/OCCO | 50.9 µM (inactive) | 0.481 µM (active) | 1.86 µM (inactive) | 0.433 | 0.175 µM (active) | > 100 µM (inactive) | > 100 µM (inactive) | 2.39 µM (inactive) | – | 0.662 µM (active) | 5.62 µM (inactive) | 0.824 µM (active) | 23 µM (inactive) | > 100 µM (inactive) | 0.771 µM (active) | > 100 µM (inactive) | 0.274 µM (active) | 5.85 µM (inactive) | > 100 µM (inactive) | 3.87 µM (inactive)
COc1ccc(/C=C2\C[C@H]3[C@@H]4CCC5=C/C(=N/O)CC[C@]5(C)[C@H]4CC[C@]3(C)\C2=N\O)cc1OC | 57.8 µM (inactive) | 6.56 µM (inactive) | 6.87 µM (inactive) | 14.7 | 8.43 µM (inactive) | > 100 µM (inactive) | 40.6 µM (inactive) | 40.2 µM (inactive) | – | 3.36 µM (inactive) | 7.66 µM (inactive) | 3.61 µM (inactive) | 11.6 µM (inactive) | – | 2.75 µM (inactive) | 52.6 µM (inactive) | 47.4 µM (inactive) | 28.4 µM (inactive) | 88.5 µM (inactive) | 4.72 µM (inactive)
CC(C)=CCOc1cc(NC(=S)c2ccoc2C)ccc1Cl [UC 781] | > 100 µM (inactive) | > 100 µM (inactive) | > 100 µM (inactive) | > 100 | > 100 µM (inactive) | 16.3 µM (inactive) | 84.1 µM (inactive) | – | 35.5 µM (inactive) | > 100 µM (inactive) | 5.07 µM (inactive) | > 100 µM (inactive) | > 100 µM (inactive) | 48.5 µM (inactive) | > 100 µM (inactive) | 81.1 µM (inactive) | 65.2 µM (inactive) | > 100 µM (inactive) | > 100 µM (inactive) | –
Cn1c2ccccc2n2c3ccccc3c3nnc(N)c-3c12 | 2.25 µM (inactive) | 35.2 µM (inactive) | 19.2 µM (inactive) | > 100 | 76.4 µM (inactive) | 1.95 µM (inactive) | 9.2 µM (inactive) | > 95.3 µM (inactive) | 55 µM (inactive) | > 100 µM (inactive) | 1.64 µM (inactive) | > 60.4 µM (inactive) | – | 0.673 µM (active) | 28.9 µM (inactive) | 1.45 µM (inactive) | > 100 µM (inactive) | 22.7 µM (inactive) | > 81.3 µM (inactive) | > 100 µM (inactive)
CSc1ncc2c(n1)-c1ccccc1OC2NC(C)(C)C (stereo not drawn) | 44.9 µM (inactive) | > 100 µM (inactive) | 36.5 µM (inactive) | > 100 | 35.7 µM (inactive) | 27.2 µM (inactive) | > 100 µM (inactive) | > 100 µM (inactive) | > 100 µM (inactive) | 29 µM (inactive) | 55 µM (inactive) | > 100 µM (inactive) | – | > 100 µM (inactive) | – | > 100 µM (inactive) | – | 98.4 µM (inactive) | > 100 µM (inactive) | > 100 µM (inactive)
CC1(C)CN=C(Nc2ccc(F)cc2)S1 | > 100 µM (inactive) | > 100 µM (inactive) | > 100 µM (inactive) | > 100 | > 100 µM (inactive) | > 100 µM (inactive) | > 100 µM (inactive) | > 100 µM (inactive) | – | > 100 µM (inactive) | > 100 µM (inactive) | – | > 100 µM (inactive) | > 100 µM (inactive) | > 100 µM (inactive) | > 100 µM (inactive) | > 100 µM (inactive) | > 100 µM (inactive) | > 100 µM (inactive) | > 100 µM (inactive)
COc1cc(/C=N/NC(=O)c2c(Cl)c(Cl)c(Cl)c(Cl)c2-c2nc3ccccc3[nH]2)ccc1O | 21.1 µM (inactive) | 16.7 µM (inactive) | 16.9 µM (inactive) | 22 | 25.3 µM (inactive) | 22.9 µM (inactive) | 21.6 µM (inactive) | 24.7 µM (inactive) | – | 19.2 µM (inactive) | 0.56 µM (active) | 19.1 µM (inactive) | 24 µM (inactive) | – | 14.9 µM (inactive) | 30.5 µM (inactive) | 14 µM (inactive) | 20.2 µM (inactive) | 33.6 µM (inactive) | 21.2 µM (inactive)
c1cc2c3c(c1)[C@@H]1O[C@@H]1c1cccc(c1-3)[C@@H]1O[C@H]21 | 24 µM (inactive) | 15 µM (inactive) | 10.1 µM (inactive) | 17.5 | 14.8 µM (inactive) | 20.9 µM (inactive) | 27.7 µM (inactive) | 15 µM (inactive) | 19.1 µM (inactive) | 16.6 µM (inactive) | 20.5 µM (inactive) | – | 17.9 µM (inactive) | 16.9 µM (inactive) | 17.9 µM (inactive) | 53.3 µM (inactive) | – | 2.93 µM (inactive) | 15.7 µM (inactive) | –

Reference: ChEMBL document CHEMBL1201862, “PubChem BioAssay data set” (2004)
